Article PMC11026318, “Radiolabeled 15-mer peptide internalization is mediated by megalin (LRP2 receptor) in a CRISPR/Cas9-based LRP2 knockout human kidney cell model” (EJNMMI Radiopharmacy and Chemistry, 2024)
Each block holds one molecule with its values, some of them ahead of it.

Tests used:
[1] = molecular target: T1, megalin (LRP2 receptor) in HK2 cells (Homo sapiens, UniProt P98164); assay: FITC-albumin accumulation studies in parent HK2 vs LRP2 knockout cells; format: cell-based; conditions: 24 µg/mL, 2 h; fluorescence of cell lysates related to total protein
T1 construct: a human kidney cell line with high endogenous megalin expression; host or cells: HK2 human kidney epithelial cells (parent), compared with CRISPR/Cas9 LRP2 KO derivatives
T1 sequence (P98164 26-4655): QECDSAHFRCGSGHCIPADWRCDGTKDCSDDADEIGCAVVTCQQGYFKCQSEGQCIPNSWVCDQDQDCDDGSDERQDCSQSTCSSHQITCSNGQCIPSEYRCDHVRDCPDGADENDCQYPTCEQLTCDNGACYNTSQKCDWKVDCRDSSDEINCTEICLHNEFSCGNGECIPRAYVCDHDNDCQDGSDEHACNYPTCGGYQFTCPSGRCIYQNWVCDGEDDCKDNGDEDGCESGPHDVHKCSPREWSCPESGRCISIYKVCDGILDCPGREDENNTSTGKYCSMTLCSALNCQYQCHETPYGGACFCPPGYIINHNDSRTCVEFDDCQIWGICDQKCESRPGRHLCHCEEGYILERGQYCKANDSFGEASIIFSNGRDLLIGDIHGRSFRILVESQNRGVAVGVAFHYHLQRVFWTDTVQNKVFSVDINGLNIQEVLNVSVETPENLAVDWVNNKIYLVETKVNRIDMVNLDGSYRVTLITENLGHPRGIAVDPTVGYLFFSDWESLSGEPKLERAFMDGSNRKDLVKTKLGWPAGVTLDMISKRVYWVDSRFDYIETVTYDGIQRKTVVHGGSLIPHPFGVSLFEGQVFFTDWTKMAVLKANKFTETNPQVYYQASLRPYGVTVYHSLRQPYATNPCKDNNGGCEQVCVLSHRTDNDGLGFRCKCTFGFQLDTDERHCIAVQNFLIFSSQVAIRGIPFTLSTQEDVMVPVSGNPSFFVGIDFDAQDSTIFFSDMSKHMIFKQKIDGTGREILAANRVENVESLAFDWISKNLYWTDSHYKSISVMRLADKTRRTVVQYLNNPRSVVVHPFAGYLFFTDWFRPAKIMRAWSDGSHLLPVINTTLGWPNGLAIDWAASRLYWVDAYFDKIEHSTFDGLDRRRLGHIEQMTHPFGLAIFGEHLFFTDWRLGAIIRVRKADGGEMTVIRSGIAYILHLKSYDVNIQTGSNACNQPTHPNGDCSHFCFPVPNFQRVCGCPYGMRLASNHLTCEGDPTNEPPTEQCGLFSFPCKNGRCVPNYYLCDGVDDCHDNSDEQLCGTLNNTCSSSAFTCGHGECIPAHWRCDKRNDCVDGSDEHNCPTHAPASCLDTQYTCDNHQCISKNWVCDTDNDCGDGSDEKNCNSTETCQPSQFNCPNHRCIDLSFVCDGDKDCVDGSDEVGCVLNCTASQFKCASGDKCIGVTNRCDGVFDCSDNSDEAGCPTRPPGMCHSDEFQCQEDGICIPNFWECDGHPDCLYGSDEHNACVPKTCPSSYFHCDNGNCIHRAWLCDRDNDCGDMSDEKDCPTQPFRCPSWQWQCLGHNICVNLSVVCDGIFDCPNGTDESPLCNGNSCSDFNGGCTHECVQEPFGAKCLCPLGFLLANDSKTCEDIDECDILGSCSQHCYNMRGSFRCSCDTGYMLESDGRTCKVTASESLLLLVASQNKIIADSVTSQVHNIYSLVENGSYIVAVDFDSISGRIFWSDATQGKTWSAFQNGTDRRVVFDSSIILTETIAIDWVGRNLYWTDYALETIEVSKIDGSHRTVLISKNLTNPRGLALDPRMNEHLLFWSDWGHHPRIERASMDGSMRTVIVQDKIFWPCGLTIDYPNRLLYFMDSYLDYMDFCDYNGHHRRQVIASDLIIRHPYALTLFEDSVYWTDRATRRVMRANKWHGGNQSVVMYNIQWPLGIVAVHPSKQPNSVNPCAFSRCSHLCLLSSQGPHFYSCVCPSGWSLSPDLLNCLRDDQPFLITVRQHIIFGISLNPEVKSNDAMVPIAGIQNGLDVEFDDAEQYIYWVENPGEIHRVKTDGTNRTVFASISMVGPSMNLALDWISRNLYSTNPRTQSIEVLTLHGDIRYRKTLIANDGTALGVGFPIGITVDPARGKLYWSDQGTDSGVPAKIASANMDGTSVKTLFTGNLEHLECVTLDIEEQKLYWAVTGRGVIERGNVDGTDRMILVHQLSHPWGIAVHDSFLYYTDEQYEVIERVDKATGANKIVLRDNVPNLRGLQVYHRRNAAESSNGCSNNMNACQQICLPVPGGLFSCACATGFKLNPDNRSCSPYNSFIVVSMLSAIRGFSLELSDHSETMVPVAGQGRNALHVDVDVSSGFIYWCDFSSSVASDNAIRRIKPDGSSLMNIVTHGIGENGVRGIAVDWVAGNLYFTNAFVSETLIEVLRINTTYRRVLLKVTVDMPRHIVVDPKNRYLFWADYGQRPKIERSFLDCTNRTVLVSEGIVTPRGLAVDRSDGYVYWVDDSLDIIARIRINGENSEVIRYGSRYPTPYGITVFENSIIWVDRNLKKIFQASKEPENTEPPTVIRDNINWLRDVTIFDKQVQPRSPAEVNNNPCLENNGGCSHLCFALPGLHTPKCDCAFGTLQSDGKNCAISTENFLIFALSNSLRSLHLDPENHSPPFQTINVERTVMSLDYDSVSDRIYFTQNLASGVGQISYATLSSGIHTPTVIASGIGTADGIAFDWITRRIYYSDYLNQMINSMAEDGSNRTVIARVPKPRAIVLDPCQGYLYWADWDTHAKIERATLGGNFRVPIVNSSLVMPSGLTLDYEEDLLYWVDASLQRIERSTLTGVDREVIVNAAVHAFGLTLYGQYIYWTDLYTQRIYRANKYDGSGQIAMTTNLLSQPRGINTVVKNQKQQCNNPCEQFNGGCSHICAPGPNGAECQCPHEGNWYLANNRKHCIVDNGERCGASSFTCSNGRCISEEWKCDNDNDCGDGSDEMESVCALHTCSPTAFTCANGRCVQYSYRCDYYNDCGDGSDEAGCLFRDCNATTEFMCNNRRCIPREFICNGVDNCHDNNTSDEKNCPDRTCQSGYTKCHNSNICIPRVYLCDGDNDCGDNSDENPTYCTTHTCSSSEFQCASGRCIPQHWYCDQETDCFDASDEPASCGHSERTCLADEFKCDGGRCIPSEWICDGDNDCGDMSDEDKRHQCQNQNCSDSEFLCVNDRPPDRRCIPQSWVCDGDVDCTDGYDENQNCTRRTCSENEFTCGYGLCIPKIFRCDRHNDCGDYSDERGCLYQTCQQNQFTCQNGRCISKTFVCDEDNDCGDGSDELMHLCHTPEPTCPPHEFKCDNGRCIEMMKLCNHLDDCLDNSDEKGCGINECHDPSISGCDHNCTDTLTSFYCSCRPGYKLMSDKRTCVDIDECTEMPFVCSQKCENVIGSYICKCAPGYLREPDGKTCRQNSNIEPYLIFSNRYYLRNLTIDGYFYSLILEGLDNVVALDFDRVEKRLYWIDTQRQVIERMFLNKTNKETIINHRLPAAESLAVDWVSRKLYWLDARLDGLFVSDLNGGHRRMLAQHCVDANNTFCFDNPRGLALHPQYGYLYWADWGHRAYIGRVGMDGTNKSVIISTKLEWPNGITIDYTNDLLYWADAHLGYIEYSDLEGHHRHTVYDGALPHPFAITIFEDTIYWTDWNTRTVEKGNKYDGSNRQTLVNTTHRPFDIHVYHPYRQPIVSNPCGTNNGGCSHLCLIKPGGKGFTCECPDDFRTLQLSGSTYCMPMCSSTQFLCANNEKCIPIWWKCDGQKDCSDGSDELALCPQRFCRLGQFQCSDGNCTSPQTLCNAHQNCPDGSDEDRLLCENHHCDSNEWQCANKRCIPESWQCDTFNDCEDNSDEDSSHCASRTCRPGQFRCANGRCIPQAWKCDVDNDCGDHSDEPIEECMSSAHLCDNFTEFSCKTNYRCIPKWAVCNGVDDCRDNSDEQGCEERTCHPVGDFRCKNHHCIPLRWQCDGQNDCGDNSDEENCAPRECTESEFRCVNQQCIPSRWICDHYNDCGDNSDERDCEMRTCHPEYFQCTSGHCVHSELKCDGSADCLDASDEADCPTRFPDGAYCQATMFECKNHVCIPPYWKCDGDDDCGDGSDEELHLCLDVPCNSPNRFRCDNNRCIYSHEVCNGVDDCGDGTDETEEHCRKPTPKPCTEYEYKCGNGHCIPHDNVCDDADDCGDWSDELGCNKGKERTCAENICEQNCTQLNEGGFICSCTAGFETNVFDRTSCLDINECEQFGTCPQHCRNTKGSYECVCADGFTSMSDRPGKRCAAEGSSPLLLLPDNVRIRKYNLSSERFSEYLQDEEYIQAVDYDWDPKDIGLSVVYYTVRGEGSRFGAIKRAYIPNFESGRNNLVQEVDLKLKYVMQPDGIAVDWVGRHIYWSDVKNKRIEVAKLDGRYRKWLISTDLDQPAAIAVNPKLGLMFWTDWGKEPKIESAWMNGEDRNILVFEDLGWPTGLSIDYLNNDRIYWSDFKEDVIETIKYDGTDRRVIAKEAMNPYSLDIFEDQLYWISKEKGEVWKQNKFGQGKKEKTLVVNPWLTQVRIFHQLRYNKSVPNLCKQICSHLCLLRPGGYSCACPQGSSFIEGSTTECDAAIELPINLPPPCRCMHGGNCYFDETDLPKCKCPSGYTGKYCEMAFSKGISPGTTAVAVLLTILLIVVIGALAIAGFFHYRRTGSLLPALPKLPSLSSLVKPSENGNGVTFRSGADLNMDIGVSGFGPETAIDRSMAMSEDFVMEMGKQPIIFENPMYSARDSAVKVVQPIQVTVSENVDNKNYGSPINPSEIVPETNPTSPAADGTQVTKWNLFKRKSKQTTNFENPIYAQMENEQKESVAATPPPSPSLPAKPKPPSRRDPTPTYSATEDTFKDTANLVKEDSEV
Description: The CRISPR/cas9 gene editing technique was implemented to generate LRP2 KO HK2 cells (Fig. 1) employing designed sgRNA sequences (Table 1). HK2 cells were seeded on 24-well plate (10^5 cells/well). Cells were transfected by sgRNA (720 ng per reaction) and TrueCut™ Cas9 Protein v2 (3 840 ng per reaction; Invitrogen) using Lipofectamine™ CRISPRMAX™ Cas9 Transfection Reagent (Invitrogen) according to the manufacturer’s instructions 24 h after seeding. The knockout reactions were repeated twice for each sgRNA. Each transfection was performed after 48 h of recovery. The final group of cells transfected sequentially six times was designated as LRP2 KO. A group of cells transfected only once with NPMY sgRNA but twice with TMD and PPPSPS sgRNAs, was designated as partial KO (Figs. 2A–E, 5A and B).
The accumulation studies of fluorescein isothiocyanate-labelled albumin (FITC-albumin, Merck) were performed in 24-well plates (10^5 cells per well). The cells were incubated with 24 µg/mL FITC-albumin, and Passive Lysis Buffer (Promega) was added to lyse the cells after 2 h treatment. The accumulated FITC-albumin was quantified by measuring the fluorescence intensity of cell lysates (Tecan Spark® multimode microplate reader). Fluorescence intensity was plotted against total protein concentration determined by the commercially available Pierce™ BCA Protein Assay Kit (ThermoFisher Scientific).

[2] = tested on: vascular endothelial growth factor (VEGF) receptor; conditions: in both in vitro and in vivo studies; ref Basile et al. [2011]; cited from earlier work
[3] = tested on: HK2 cells (parent, partial KO, LRP2 KO); assay: Viability assay with gentamicin at cytotoxic concentration (CellTiter 96 AQueous One); format: cell-based, human; conditions: gentamicin 6 mg/mL, 48 h
Description: The cells were seeded in a 96-well plate (10^4 cells per well) 24 h prior to the experiment. The cells treated with gentamicin at cytotoxic concentration (6 mg/mL) were incubated in parallel with the controls in standard culture medium (representing 100% cell viability). The cells cultivated with 10% DMSO in culture medium represent 0% cell viability, which was measured after 48 h using the CellTiter 96® AQueous One Solution Cell Proliferation Assay (Promega) according to the manufacturer’s protocol. Absorbance was detected using a spectrophotometric plate reader (TECAN Infinite M200).

- FITC-albumin accumulation in KO cells vs parent HK2 cells [1]: Reduced FITC-albumin accumulation
Molecule: fluorescein isothiocyanate-labelled albumin [FITC-albumin]

Molecule: Ac-KLTWMELYQLAYKGI-NH2 [15-mer, 15 amino acid anti-VEGFR peptide, custom synthesized according to a previously published structure (Basile et al. 2011)]
- Antiangiogenic effects [2]: potent antiangiogenic effects

Molecule: CNC(C)C1CCC(N)C(OC2C(N)CC(N)C(OC3OCC(C)(O)C(NC)C3O)C2O)O1 (stereo not drawn) [gentamicin]
- Viability of partial KO or LRP2 KO cells after treatment, compared to HK2 parent cells [3]: higher viability
